Results published in paper PMC6886798, “Expression of myeloid Src-family kinases is associated with poor prognosis in AML and influences Flt3-ITD kinase inhibitor acquired resistance” (PLoS ONE, 2019).

How the values were obtained:
Experiment in all cases: KINOMEscan
Type in all cases: binding
Conditions in all cases: 1.0 µM
[1] = molecular target: T1, ACVR2B (Homo sapiens, UniProt Q13705)
T1 construct: purchased Eurofins/DiscoverX KINOMEscan scanMAX
Protocol: (§1) Kinase retention to the immobilized ligand is then measured using quantitative real-time PCR for each kinase-specific DNA barcode.

[2] = molecular target: T2, ADCK4 (Homo sapiens, UniProt Q96D53)
T2 construct: purchased Eurofins/DiscoverX KINOMEscan scanMAX
Protocol: as §1

[3] = molecular target: T3, ALK (Homo sapiens, UniProt Q9UM73)
T3 construct: purchased Eurofins/DiscoverX KINOMEscan scanMAX
Protocol: as §1

[4] = molecular target: T4, AURKA (Homo sapiens, UniProt O14965)
T4 construct: purchased Eurofins/DiscoverX KINOMEscan scanMAX
Protocol: as §1

[5] = molecular target: T5, AURKC (Homo sapiens, UniProt Q9UQB9)
T5 construct: purchased Eurofins/DiscoverX KINOMEscan scanMAX
Protocol: as §1

[6] = molecular target: T6, BMPR2 (Homo sapiens, UniProt Q13873)
T6 construct: purchased Eurofins/DiscoverX KINOMEscan scanMAX
Protocol: as §1

[7] = molecular target: T7, BRAF(V600E) (Homo sapiens, UniProt P15056, V600E)
T7 construct: purchased Eurofins/DiscoverX KINOMEscan scanMAX
Protocol: as §1

[8] = molecular target: T8, CDK2 (Homo sapiens, UniProt P24941)
T8 construct: purchased Eurofins/DiscoverX KINOMEscan scanMAX
Protocol: as §1

[9] = molecular target: T9, CDKL5 (Homo sapiens, UniProt O76039)
T9 construct: purchased Eurofins/DiscoverX KINOMEscan scanMAX
Protocol: as §1

[10] = molecular target: T10, CLK1 (Homo sapiens, UniProt P49759)
T10 construct: purchased Eurofins/DiscoverX KINOMEscan scanMAX
Protocol: as §1

[11] = molecular target: T11, CLK3 (Homo sapiens, UniProt P49761)
T11 construct: purchased Eurofins/DiscoverX KINOMEscan scanMAX
Protocol: as §1

[12] = molecular target: T12, CSF1R (Homo sapiens, UniProt P07333)
T12 construct: purchased Eurofins/DiscoverX KINOMEscan scanMAX
Protocol: as §1

[13] = molecular target: T13, CSNK1G3 (Homo sapiens, UniProt Q9Y6M4)
T13 construct: purchased Eurofins/DiscoverX KINOMEscan scanMAX
Protocol: as §1

[14] = molecular target: T14, EPHB1 (Homo sapiens, UniProt P54762)
T14 construct: purchased Eurofins/DiscoverX KINOMEscan scanMAX
Protocol: as §1

[15] = molecular target: T15, EPHB4 (Homo sapiens, UniProt P54760)
T15 construct: purchased Eurofins/DiscoverX KINOMEscan scanMAX
Protocol: as §1

[16] = molecular target: T16, EPHB6 (Homo sapiens, UniProt O15197)
T16 construct: purchased Eurofins/DiscoverX KINOMEscan scanMAX
Protocol: as §1

[17] = molecular target: T17, FGFR3(G697C) (Homo sapiens, UniProt P22607, G697C)
T17 construct: purchased Eurofins/DiscoverX KINOMEscan scanMAX
Protocol: as §1

[18] = molecular target: T18, FRK (Homo sapiens, UniProt P42685)
T18 construct: purchased Eurofins/DiscoverX KINOMEscan scanMAX
Protocol: as §1

[19] = molecular target: T19, GCN2(Kin.Dom.2,S808G) (Homo sapiens, UniProt Q9P2K8, S808G)
T19 construct: GCN2(Kin.Dom.2,S808G); purchased Eurofins/DiscoverX KINOMEscan scanMAX
Protocol: as §1

[20] = molecular target: T20, HIPK4 (Homo sapiens, UniProt Q8NE63)
T20 construct: purchased Eurofins/DiscoverX KINOMEscan scanMAX
Protocol: as §1

[21] = molecular target: T21, INSRR (Homo sapiens, UniProt P14616)
T21 construct: purchased Eurofins/DiscoverX KINOMEscan scanMAX
Protocol: as §1

[22] = molecular target: T22, JNK2 (Homo sapiens, UniProt P45984)
T22 construct: purchased Eurofins/DiscoverX KINOMEscan scanMAX
Protocol: as §1

[23] = molecular target: T23, LIMK2 (Homo sapiens, UniProt P53671)
T23 construct: purchased Eurofins/DiscoverX KINOMEscan scanMAX
Protocol: as §1

[24] = molecular target: T24, LRRK2 (Homo sapiens, UniProt Q5S007)
T24 construct: purchased Eurofins/DiscoverX KINOMEscan scanMAX
Protocol: as §1

[25] = molecular target: T25, LZK (Homo sapiens, UniProt O43283)
T25 construct: purchased Eurofins/DiscoverX KINOMEscan scanMAX
Protocol: as §1

[26] = molecular target: T26, MARK3 (Homo sapiens, UniProt P27448)
T26 construct: purchased Eurofins/DiscoverX KINOMEscan scanMAX
Protocol: as §1

[27] = molecular target: T27, MET(M1250T) (Homo sapiens, UniProt P08581, M1250T)
T27 construct: purchased Eurofins/DiscoverX KINOMEscan scanMAX
Protocol: as §1

[28] = molecular target: T28, MST1R (Homo sapiens, UniProt Q04912)
T28 construct: purchased Eurofins/DiscoverX KINOMEscan scanMAX
Protocol: as §1

[29] = molecular target: T29, NDR1 (Homo sapiens, UniProt Q15208)
T29 construct: purchased Eurofins/DiscoverX KINOMEscan scanMAX
Protocol: as §1

[30] = molecular target: T30, PAK2 (Homo sapiens, UniProt Q13177)
T30 construct: purchased Eurofins/DiscoverX KINOMEscan scanMAX
Protocol: as §1

[31] = molecular target: T31, PCTK2 (Homo sapiens, UniProt Q00537)
T31 construct: purchased Eurofins/DiscoverX KINOMEscan scanMAX
Protocol: as §1

[32] = molecular target: T32, PDGFRB (Homo sapiens, UniProt P09619)
T32 construct: purchased Eurofins/DiscoverX KINOMEscan scanMAX
Protocol: as §1

[33] = molecular target: T33, PIK3CA(H1047Y) (Homo sapiens, UniProt P42336, H1047Y)
T33 construct: purchased Eurofins/DiscoverX KINOMEscan scanMAX
Protocol: as §1

[34] = molecular target: T34, PIP5K2C (Homo sapiens, UniProt Q8TBX8)
T34 construct: purchased Eurofins/DiscoverX KINOMEscan scanMAX
Protocol: as §1

[35] = molecular target: T35, PKMYT1 (Homo sapiens, UniProt Q99640)
T35 construct: purchased Eurofins/DiscoverX KINOMEscan scanMAX
Protocol: as §1

[36] = molecular target: T36, PKN1 (Homo sapiens, UniProt Q16512)
T36 construct: purchased Eurofins/DiscoverX KINOMEscan scanMAX
Protocol: as §1

[37] = molecular target: T37, PRKG1 (Homo sapiens, UniProt Q13976)
T37 construct: purchased Eurofins/DiscoverX KINOMEscan scanMAX
Protocol: as §1

[38] = molecular target: T38, RIOK3 (Homo sapiens, UniProt O14730)
T38 construct: purchased Eurofins/DiscoverX KINOMEscan scanMAX
Protocol: as §1

[39] = molecular target: T39, ROCK1 (Homo sapiens, UniProt Q13464)
T39 construct: purchased Eurofins/DiscoverX KINOMEscan scanMAX
Protocol: as §1

[40] = molecular target: T40, STK16 (Homo sapiens, UniProt O75716)
T40 construct: purchased Eurofins/DiscoverX KINOMEscan scanMAX
Protocol: as §1

[41] = molecular target: T41, TAOK3 (Homo sapiens, UniProt Q9H2K8)
T41 construct: purchased Eurofins/DiscoverX KINOMEscan scanMAX
Protocol: as §1

[42] = molecular target: T42, ZAP70 (Homo sapiens, UniProt P43403)
T42 construct: purchased Eurofins/DiscoverX (KINOMEscan scanMAX service)
Protocol: as §1

T11 sequence (P49761 whole entry): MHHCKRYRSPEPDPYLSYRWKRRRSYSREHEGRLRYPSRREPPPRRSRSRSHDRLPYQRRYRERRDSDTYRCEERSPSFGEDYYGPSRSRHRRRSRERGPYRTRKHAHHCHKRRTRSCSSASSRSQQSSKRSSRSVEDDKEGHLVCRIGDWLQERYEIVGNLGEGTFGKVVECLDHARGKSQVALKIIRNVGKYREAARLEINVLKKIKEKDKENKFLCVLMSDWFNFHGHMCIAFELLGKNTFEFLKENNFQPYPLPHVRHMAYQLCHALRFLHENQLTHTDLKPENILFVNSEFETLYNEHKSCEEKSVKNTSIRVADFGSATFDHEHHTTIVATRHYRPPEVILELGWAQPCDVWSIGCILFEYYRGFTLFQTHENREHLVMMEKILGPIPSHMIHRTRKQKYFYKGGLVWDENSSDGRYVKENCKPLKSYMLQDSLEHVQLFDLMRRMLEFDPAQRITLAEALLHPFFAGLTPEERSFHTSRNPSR
T6 sequence (Q13873 27-1038): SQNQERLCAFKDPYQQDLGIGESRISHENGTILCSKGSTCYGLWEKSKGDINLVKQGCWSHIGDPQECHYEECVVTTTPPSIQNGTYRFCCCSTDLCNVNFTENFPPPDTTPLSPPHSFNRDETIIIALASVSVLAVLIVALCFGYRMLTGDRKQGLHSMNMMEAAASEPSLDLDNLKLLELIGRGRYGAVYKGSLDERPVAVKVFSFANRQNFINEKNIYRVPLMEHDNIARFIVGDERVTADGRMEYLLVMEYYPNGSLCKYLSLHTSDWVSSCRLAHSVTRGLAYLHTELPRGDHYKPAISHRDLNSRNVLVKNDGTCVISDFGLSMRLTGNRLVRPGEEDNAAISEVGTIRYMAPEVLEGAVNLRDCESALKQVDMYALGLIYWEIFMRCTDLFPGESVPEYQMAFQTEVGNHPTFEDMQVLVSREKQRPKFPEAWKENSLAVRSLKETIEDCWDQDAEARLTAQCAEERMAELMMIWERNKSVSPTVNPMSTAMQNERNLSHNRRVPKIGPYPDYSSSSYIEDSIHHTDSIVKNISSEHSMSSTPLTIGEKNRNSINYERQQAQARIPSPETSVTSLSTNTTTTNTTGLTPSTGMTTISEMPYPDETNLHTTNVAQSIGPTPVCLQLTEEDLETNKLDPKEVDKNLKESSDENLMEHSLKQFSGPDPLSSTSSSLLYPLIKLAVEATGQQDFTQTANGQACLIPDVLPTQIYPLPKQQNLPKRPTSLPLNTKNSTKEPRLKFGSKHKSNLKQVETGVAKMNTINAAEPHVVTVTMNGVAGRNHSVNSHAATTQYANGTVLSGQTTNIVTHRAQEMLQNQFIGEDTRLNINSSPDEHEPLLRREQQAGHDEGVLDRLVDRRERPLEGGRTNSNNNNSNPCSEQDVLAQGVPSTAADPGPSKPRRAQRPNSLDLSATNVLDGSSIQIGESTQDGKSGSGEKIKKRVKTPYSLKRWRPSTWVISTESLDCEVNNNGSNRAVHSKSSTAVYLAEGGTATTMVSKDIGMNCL
T7 sequence (P15056 whole entry V600E): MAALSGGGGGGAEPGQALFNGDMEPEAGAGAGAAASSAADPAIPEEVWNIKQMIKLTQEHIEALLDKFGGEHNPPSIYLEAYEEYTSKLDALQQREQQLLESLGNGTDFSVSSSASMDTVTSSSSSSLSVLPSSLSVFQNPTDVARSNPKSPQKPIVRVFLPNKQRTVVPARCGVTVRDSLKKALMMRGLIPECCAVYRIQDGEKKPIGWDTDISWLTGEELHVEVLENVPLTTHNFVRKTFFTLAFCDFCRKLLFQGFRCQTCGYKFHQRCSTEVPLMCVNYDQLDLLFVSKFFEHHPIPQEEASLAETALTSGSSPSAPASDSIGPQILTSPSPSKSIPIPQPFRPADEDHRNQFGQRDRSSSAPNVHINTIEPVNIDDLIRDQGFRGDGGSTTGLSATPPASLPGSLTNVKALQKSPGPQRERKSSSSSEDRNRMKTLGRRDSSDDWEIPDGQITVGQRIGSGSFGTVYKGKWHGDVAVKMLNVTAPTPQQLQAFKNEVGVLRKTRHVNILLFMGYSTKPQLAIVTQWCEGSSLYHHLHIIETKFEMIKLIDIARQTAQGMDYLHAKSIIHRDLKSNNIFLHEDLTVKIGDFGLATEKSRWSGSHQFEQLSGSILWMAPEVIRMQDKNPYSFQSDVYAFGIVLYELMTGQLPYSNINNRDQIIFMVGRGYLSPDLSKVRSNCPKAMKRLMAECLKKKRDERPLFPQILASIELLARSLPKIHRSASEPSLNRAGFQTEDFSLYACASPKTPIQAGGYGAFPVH
T33 sequence (P42336 whole entry H1047Y): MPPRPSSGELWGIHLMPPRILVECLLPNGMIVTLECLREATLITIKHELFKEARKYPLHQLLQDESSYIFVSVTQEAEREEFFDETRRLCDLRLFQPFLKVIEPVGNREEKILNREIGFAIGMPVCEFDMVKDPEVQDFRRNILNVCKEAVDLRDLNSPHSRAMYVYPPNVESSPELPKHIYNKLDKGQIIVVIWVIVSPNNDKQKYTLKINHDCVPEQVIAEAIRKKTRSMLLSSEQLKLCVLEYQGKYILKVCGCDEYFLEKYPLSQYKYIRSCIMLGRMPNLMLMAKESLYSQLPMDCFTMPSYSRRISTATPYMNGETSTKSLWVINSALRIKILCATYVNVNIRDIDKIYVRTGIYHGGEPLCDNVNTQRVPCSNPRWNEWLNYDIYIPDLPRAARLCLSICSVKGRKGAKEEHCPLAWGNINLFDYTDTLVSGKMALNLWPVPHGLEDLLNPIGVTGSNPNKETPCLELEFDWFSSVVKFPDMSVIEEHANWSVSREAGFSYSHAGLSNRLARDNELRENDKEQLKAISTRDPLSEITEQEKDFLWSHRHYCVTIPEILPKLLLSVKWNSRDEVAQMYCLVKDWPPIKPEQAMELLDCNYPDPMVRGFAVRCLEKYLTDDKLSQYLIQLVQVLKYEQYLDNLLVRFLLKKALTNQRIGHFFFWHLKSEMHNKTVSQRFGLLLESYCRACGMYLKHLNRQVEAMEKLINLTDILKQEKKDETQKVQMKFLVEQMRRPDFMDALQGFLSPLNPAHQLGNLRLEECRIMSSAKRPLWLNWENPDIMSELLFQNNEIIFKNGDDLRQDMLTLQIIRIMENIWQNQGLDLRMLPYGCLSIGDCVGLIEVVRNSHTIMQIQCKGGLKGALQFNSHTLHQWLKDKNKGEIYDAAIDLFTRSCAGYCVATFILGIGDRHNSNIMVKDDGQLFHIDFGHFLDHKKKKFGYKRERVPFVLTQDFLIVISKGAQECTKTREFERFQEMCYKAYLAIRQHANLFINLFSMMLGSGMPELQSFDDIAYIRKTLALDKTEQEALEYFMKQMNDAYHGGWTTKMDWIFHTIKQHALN
T14 sequence (P54762 18-984): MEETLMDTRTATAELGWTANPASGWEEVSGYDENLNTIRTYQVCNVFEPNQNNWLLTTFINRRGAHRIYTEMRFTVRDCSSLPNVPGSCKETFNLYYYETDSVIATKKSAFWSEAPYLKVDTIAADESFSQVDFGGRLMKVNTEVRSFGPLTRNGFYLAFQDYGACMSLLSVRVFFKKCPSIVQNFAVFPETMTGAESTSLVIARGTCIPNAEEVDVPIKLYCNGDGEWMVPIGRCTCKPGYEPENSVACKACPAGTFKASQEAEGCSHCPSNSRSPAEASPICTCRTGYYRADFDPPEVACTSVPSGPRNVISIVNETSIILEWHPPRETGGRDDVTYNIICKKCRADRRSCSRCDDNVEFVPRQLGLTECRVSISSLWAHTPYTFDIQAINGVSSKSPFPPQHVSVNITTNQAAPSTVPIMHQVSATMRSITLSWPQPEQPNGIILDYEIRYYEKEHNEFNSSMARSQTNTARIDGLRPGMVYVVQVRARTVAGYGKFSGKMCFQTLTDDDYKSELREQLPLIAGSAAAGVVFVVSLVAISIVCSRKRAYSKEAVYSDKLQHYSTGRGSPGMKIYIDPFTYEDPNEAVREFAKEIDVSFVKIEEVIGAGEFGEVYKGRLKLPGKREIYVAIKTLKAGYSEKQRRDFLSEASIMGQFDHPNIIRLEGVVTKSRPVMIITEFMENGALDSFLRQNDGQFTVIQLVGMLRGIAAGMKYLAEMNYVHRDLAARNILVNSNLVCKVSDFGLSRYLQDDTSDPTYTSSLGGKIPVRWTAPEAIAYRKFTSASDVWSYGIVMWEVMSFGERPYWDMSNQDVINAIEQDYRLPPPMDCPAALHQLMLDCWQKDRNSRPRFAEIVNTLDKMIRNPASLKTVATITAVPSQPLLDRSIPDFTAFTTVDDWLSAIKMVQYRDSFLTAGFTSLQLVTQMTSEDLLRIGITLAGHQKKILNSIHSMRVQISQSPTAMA
T38 sequence (O14730 whole entry): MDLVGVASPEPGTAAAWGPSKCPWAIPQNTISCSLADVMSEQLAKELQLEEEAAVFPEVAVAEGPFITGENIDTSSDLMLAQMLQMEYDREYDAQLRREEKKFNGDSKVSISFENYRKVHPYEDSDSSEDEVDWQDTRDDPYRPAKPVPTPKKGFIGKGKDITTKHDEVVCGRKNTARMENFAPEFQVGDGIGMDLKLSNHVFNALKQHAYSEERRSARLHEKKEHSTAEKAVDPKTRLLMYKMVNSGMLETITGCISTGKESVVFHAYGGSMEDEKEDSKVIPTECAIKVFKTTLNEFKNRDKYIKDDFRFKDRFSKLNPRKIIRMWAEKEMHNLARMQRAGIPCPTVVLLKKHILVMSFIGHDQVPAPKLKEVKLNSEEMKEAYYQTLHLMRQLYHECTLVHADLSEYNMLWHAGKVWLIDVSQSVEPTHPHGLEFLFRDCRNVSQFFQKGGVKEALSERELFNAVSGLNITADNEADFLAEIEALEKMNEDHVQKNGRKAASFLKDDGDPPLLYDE

## CN1CCN(C2CCC(n3cc(-c4ccc(Oc5ccccc5)cc4)c4c(N)ncnc43)CC2)CC1 (stereo not drawn) [A-419259]
[1]
  % Control: 100%
[2]
  % Control: 100%
[3]
  % Control: 29%
[4]
  % Control: 36%
[5]
  % Control: 79%
[6]
  % Control: 97%
[7]
  % Control: 45%
[8]
  % Control: 70%
[9]
  % Control: 100%
[10]
  % Control: 100%
[11]
  % Control: 100%
[12]
  % Control: 5.8%
[13]
  % Control: 100%
[14]
  % Control: 96%
[15]
  % Control: 100%
[16]
  % Control: 6.8%
[17]
  % Control: 27%
[18]
  % Control: 5.3%
[19]
  % Control: 79%
[20]
  % Control: 63%
[21]
  % Control: 86%
[22]
  % Control: 94%
[23]
  % Control: 91%
[24]
  % Control: 98%
[25]
  % Control: 85%
[26]
  % Control: 83%
[27]
  % Control: 59%
[28]
  % Control: 96%
[29]
  % Control: 68%
[30]
  % Control: 91%
[31]
  % Control: 59%
[32]
  % Control: 0%
[33]
  % Control: 99%
[34]
  % Control: 95%
[35]
  % Control: 100%
[36]
  % Control: 88%
[37]
  % Control: 100%
[38]
  % Control: 64%
[39]
  % Control: 90%
[40]
  % Control: 100%
[41]
  % Control: 100%
[42]
  % Control: 100%
